≈ marks a conversion by molar mass, not a printed value. One block for each compound: values may come before it.
Legend:
VIM-2 = VIM-2 (Escherichia coli, UniProt Q5U7L7); assay: β-lactamase inhibition assay, nitrocefin substrate; assay type: biochemical; settings: in our hands
[1] = tested on: K. pneumoniae CDC-0066 (OXA-232, OXA-9, TEM-1A, CTX-M-15, OXA-1); assay: MIC, rescue of β-lactams in MDR clinical isolates; assay type: cell-based; settings: Klebsiella pneumoniae, read-out: PIP MIC
[2] = tested on: E. coli CDC-0055 (NDM-1, CMY-6, OXA-1); assay: MIC, rescue of β-lactams in MDR clinical isolates; assay type: cell-based; settings: Escherichia coli, read-out: PIP MIC
[3] = tested on: K. pneumoniae ATCC BAA 1705 (KPC-2); assay: MIC, rescue of β-lactams in MDR clinical isolates; assay type: cell-based; settings: Klebsiella pneumoniae, BAA1705, read-out: PIP MIC
[4] = tested on: P. aeruginosa CDC-0356 (KPC-2, PDC-42); assay: MIC, rescue of β-lactams in MDR clinical isolates; assay type: cell-based; settings: Pseudomonas aeruginosa, read-out: PIP MIC
E. coli CDC-0452 (NDM) = assay: MIC, rescue of β-lactams in MDR clinical isolates; assay type: cell-based; settings: Escherichia coli, read-out: PIP MIC
[5] = tested on: K. pneumoniae CDC-0361 (KPC-2, SHV-12, TEM-1); assay: MIC, rescue of β-lactams in MDR clinical isolates; assay type: cell-based; settings: Klebsiella pneumoniae, read-out: PIP MIC
[6] = tested on: P. aeruginosa CDC-0457 (VIM); assay: MIC, rescue of β-lactams in MDR clinical isolates; assay type: cell-based; settings: Pseudomonas aeruginosa, read-out: PIP MIC
[7] = tested on: K. pneumoniae CDC-0040 (VIM-27, CTX-M-15, SHV-11, OXA-1); assay: MIC, rescue of β-lactams in MDR clinical isolates; assay type: cell-based; settings: Klebsiella pneumoniae, read-out: PIP MIC
[8] = tested on: K. pneumoniae expressing OXA-48; assay: broth microdilution MIC, meropenem potentiation; assay type: cell-based; settings: Klebsiella pneumoniae, read-out: MIC of meropenem alone
[9] = tested on: P. aeruginosa expressing VIM-2; assay: broth microdilution MIC, meropenem potentiation; assay type: cell-based; settings: Pseudomonas aeruginosa, read-out: MIC of meropenem alone
[10] = tested on: K. pneumoniae expressing KPC-2 and VIM-4; assay: broth microdilution MIC, meropenem potentiation; assay type: cell-based; settings: Klebsiella pneumoniae, read-out: MIC of meropenem alone
[11] = tested on: K. pneumoniae expressing KPC-2; assay: broth microdilution MIC, meropenem potentiation; assay type: cell-based; settings: Klebsiella pneumoniae, read-out: MIC of meropenem alone
IMP-1 = IMP-1 (Serratia marcescens, UniProt P52699); assay: β-lactamase inhibition assay, nitrocefin substrate; assay type: biochemical
NDM-1 = NDM-1 (Klebsiella pneumoniae, UniProt C7C422); assay: biochemical
NDM-1, sequence (C7C422 29-270 limits assumed): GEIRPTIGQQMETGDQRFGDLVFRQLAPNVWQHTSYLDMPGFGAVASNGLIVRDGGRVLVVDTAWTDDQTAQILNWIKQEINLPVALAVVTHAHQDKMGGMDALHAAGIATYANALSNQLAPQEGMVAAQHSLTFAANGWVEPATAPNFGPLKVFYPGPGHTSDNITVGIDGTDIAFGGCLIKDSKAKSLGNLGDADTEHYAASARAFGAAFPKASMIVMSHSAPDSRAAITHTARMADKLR

IMP-1, sequence (P52699 19-246 limits assumed): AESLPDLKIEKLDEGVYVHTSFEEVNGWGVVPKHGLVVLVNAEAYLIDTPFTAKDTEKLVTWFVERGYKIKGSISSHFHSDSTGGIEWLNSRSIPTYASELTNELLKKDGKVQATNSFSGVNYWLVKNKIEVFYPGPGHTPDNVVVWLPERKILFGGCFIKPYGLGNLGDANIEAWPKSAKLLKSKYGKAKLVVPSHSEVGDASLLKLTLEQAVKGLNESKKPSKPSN

inhibition of the MBL VIM-2, in words (VIM-2): micromolar levels
Compound: NCc1ccc(CC(=O)N[C@H]2Cc3cccc(C(=O)O)c3OB2O)cc1 [compound 3]

Compound: CCN1CCN(C(=O)N[C@@H](C(=O)N[C@@H]2C(=O)N3[C@@H]2SC(C)(C)[C@@H]3C(=O)O)c2ccccc2)C(=O)C1=O [piperacillin]
MIC [1]: > 128 µg/mL
MIC [2]: > 128 µg/mL
MIC [3]: > 128 µg/mL
MIC [4]: > 128 µg/mL
MIC (E. coli CDC-0452 (NDM)): > 128 µg/mL
MIC [5]: > 128 µg/mL
MIC [6]: 64 µg/mL (≈ 124 µM)
MIC [7]: > 128 µg/mL

Compound: C[C@@H](O)[C@H]1C(=O)N2C(C(=O)O)=C(S[C@@H]3CN[C@H](C(=O)N(C)C)C3)[C@H](C)[C@H]12 [meropenem]
MIC [8]: ≥ 32 µg/mL
MIC [9]: ≥ 32 µg/mL
MIC [10]: ≥ 32 µg/mL
MIC [11]: ≥ 32 µg/mL

Compound: C[C@]1(Cn2ccnn2)[C@H](C(=O)O)N2C(=O)C[C@H]2S1(=O)=O [tazobactam]
IC50 (IMP-1): > 100 µM
IC50 (NDM-1): > 100 µM

inhibition of the MBL VIM-2, in words (VIM-2): micromolar levels
Compound: CC(=O)N[C@H]1Cc2cccc(C(=O)O)c2OB1O [compound 1]

Reference: article PMC7104248, “Discovery of Taniborbactam (VNRX-5133): A Broad-Spectrum Serine- and Metallo-β-lactamase Inhibitor for Carbapenem-Resistant Bacterial Infections” (Journal of Medicinal Chemistry, 2019)
